These results are taken from patent publication US9982152B2, “Active energy ray curable composition, cured product, composition storage container, two-dimensional or three-dimensional image forming apparatus, and two-dimensional or three-dimensional image forming method” (Ricoh Company, Ltd., priority 2016, dated 2018).

For data set [1] the following is noted: data source SDS, GHS hazard category for skin sensitizers or negative in a skin sensitization test, cited from earlier work.
Data set [2] can be described thus: LLNA (Local Lymph Node Assay), SI (Stimulus Index). Format: in vivo. To be noted: for Skin Sensitization Potential: judged from SI by LLNA; for SI (by LLNA): measured according to method of JP-2012-140593-A. An excerpt:
In the present disclosure, compounds having skin sensitization potential refer to those determined to be positive in a skin sensitization test. Hereinafter, such compounds may also be referred to as “skin-sensitizing compounds” or “skin sensitizers”. The skin sensitization test is not limited to a specific test. As an example of the skin sensitization test, LLNA (Local Lymph Node Assay) is known that evaluates the degree of sensitization potential by SI (Stimulus Index). SI of 3 or more is determined to be positive.
Skin sensitization information described in Table 1 was obtained from SDSs available in Japan or other countries. SI (determined by LLNA) values described in Table 1 were measured according to a method described in JP-2012-140593-A.

Like-named read-outs stand apart in the source and are kept apart here.

As for `C=CC(=O)NCCO` [(A-2), N-(2-Hydroxyethyl)acrylamide], the “Skin Sensitization Potential” value was “Negative” in data set [1] and “negative” in data set [1] (listed as HEAA).
With `C=C(C)C(=O)OCC(C)(C)COC(=O)C(=C)C` [(A-5), Neopentyl glycol dimethacrylate], the entries for the “Skin Sensitization Potential” value in data set [2] and in data set [2] (listed as neopentyl glycol dimethacrylate) were “Negative” and “non-skin-sensitizing”, respectively. Also, the “SI (by LLNA)” value in data set [2] is recorded as “SI = 2.0”.
Take `Cc1cc(C)c(C(=O)P(=O)(c2ccccc2)c2ccccc2)c(C)c1` [(B1-1), Diphenyl(2,4,6-trimethylbenzoyl)phosphine oxide]: the “Skin Sensitization Potential” value in data set [1] is listed as 1B; in data set [1] (listed as IRGACURE TPO), “sub-category 1B”.
In the case of `Cc1cc(C)c(C(=O)P(=O)(C(=O)c2c(C)cc(C)cc2C)c2ccccc2)c(C)c1` [(B1-2), Phenylbis(2,4,6-trimethylbenzoyl)phosphine oxide], the “Skin Sensitization Potential” value in data set [1] was “Category 1”; in data set [1] (listed as IRGACURE 819) it was “category 1”.
Consider `CCCCCCC(=NOC(=O)c1ccccc1)C(=O)c1ccc(Sc2ccccc2)cc1` [(B1-3), 1-[4-(Phenylthio)phenyl]octane-1,2-dione 2-(o-benzoyloxime)], for which the “Skin Sensitization Potential” value in data set [1] is reported as “Category 1”; in data set [1] (listed as IRGACURE OXE01) it was “category 1”.
For the molecule `CCn1c2ccc(C(=O)c3ccccc3C)cc2c2cc(C(C)=NOC(C)=O)ccc21` [(B1-4), 1-[9-Ethyl-6-(2-methylbenzoyl)-9H-carbazole-3-yl]ethanone o-acetyloxime], the “Skin Sensitization Potential” value in data set [1] is 1B; in data set [1] (listed as IRGACURE OXE02), “sub-category 1B”.
As for `CSc1ccc(C(=O)C(C)(C)N2CCOCC2)cc1` [(B2-1), 2-Methyl-1-[4-(methylthio)phenyl]-2-morpholinopropane-1-one], the “Skin Sensitization Potential” value is on record as “Negative” in data set [1] and “negative” in data set [1] (listed as IRGACURE 907).
Consider `CCC(Cc1ccc(C)cc1)(C(=O)c1ccc(N2CCOCC2)cc1)N(C)C` (stereo not drawn) [(B2-2), 2-(Dimethylamino)-2-[(4-methylphenyl)methyl]-1-(4-morpholinophenyl)butane-1-one], for which the results for the “Skin Sensitization Potential” value in data set [1] and in data set [1] (listed as IRGACURE 379) were “Negative” and “negative”, respectively.
Take `O=C(c1ccccc1)C1(O)CCCCC1` [(B2-3), 1-Hydroxycyclohexyl phenyl ketone]: the “Skin Sensitization Potential” value in data set [1] is recorded as “Negative”; in data set [1] (listed as IRGACURE 184) it was “negative”.
For the molecule `CC(C)(O)C(=O)c1ccc(OCCO)cc1` [(B2-4), 1-[4-(2-hydroxyethoxy)phenyl]-2-hydroxy-2-methylpropane-1-one], the “Skin Sensitization Potential” value in data set [1] is given as “Negative”; in data set [1] (listed as IRGACURE 2959), “negative”.
With “Tricyclodecane dimethanol dimethacrylate [(A-4)]”, in data set [2], the “Skin Sensitization Potential” value is “Negative” and the “SI (by LLNA)” value was “SI = 1.3”. For the same molecule, in data set [2] (listed as tricyclodecane dimethanol dimethacrylate), the “Skin Sensitization Potential” value is listed as “non-skin-sensitizing”.
